Patent US12599136B2, “Substituted isophthalic acid diamides and their use as herbicides” (Bayer Aktiengesellschaft, priority 2020, dated 2026)

Experiments:
Assay type in all cases: in vivo
Avena fatua [1] = assay: Post-emergence herbicidal action against AVEFA; details: visual assessment about 3 weeks after treatment
Method in brief: (§1)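 Percent herbicidal action is rated by eye about 3 weeks after treatment against untreated controls, where 100% means dead plants and 0% means like controls. Plants in sandy loam are sprayed on green parts at the one-leaf stage with aqueous WP or EC preparations at 600 to 800 l/ha plus 0.2% wetting agent.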

Viola tricolor [2] = assay: Pre-emergence herbicidal action against VIOTR
Method in brief: (§2)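 Seeds sown in sandy loam, soil-covered; compound sprayed on soil surface pre-emergence. Application: WP/EC, 600–800 l/ha, 0.2% wetting agent. Readout: visual % damage at 3 weeks.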

Stellaria media [3] = assay: Pre-emergence herbicidal action against STEME
Method in brief: as §2

Matricaria inodora [4] = assay: Pre-emergence herbicidal action against MATIN; details: visual score after 3 weeks vs untreated controls
Method in brief: as §2

Matricaria inodora [5] = assay: Post-emergence herbicidal action against MATIN; details: visual assessment about 3 weeks after treatment
Method in brief: as §1

Lolium rigidum [6] = assay: Pre-emergence herbicidal action against LOLRI; details: 320 g/ha
Method in brief: as §2

Amaranthus retroflexus [7] = assay: Post-emergence herbicidal action against AMARE; details: visual assessment about 3 weeks after treatment
Method in brief: as §1

Viola tricolor [8] = assay: Post-emergence herbicidal action against VIOTR
Method in brief: as §1

Hordeum murinum [9] = assay: Post-emergence herbicidal action against HORMU
Method in brief: as §1

Setaria viridis [10] = assay: Post-emergence herbicidal action against SETVI; details: visual assessment about 3 weeks after treatment
Method in brief: as §1

Echinochloa crus-galli [11] = assay: Pre-emergence herbicidal action against ECHCG; details: visual score after 3 weeks vs untreated controls
Method in brief: as §2

Abutilon theophrasti [12] = assay: Post-emergence herbicidal action against ABUTH
Method in brief: as §1

Alopecurus myosuroides [13] = assay: Pre-emergence herbicidal action against ALOMY; details: visual score after 3 weeks vs untreated controls
Method in brief: as §2

Veronica persica [14] = assay: Post-emergence herbicidal action against VERPE; details: visual assessment about 3 weeks after treatment
Method in brief: as §1

Alopecurus myosuroides [15] = assay: Post-emergence herbicidal action against ALOMY
Method in brief: as §1

Pharbitis purpurea [16] = assay: Post-emergence herbicidal action against PHBPU; details: visual assessment about 3 weeks after treatment
Method in brief: as §1

Stellaria media [17] = assay: Post-emergence herbicidal action against STEME; details: visual assessment about 3 weeks after treatment
Method in brief: as §1

Polygonum convolvulus = assay: Post-emergence herbicidal action against POLCO; details: 80 g/ha, visual assessment about 3 weeks after treatment
Method in brief: as §1

Cyperus esculentus [18] = assay: Post-emergence herbicidal action against CYPES; details: 80 g/ha, visual assessment about 3 weeks after treatment
Method in brief: as §1

Hordeum murinum [19] = assay: Pre-emergence herbicidal action against HORMU; details: visual score after 3 weeks vs untreated controls
Method in brief: as §2

Avena fatua [20] = assay: Pre-emergence herbicidal action against AVEFA; details: visual score after 3 weeks vs untreated controls
Method in brief: as §2

Echinochloa crus-galli [21] = assay: Post-emergence herbicidal action against ECHCG; details: visual assessment about 3 weeks after treatment
Method in brief: as §1

Lolium rigidum [22] = assay: Post-emergence herbicidal action against LOLRI; details: 80 g/ha
Method in brief: as §1

Pharbitis purpurea [23] = assay: Pre-emergence herbicidal action against PHBPU; details: 320 g/ha; visual score after 3 weeks vs untreated controls
Method in brief: as §2

Abutilon theophrasti [24] = assay: Pre-emergence herbicidal action against ABUTH; details: visual score after 3 weeks vs untreated controls
Method in brief: as §2

Veronica persica [25] = assay: Pre-emergence herbicidal action against VERPE; details: 320 g/ha
Method in brief: as §2

Cyperus esculentus [26] = assay: Pre-emergence herbicidal action against CYPES; details: 320 g/ha; visual score after 3 weeks vs untreated controls
Method in brief: as §2

Setaria viridis [27] = assay: Pre-emergence herbicidal action against SETVI
Method in brief: as §2

Amaranthus retroflexus [28] = assay: Pre-emergence herbicidal action against AMARE; details: visual score after 3 weeks vs untreated controls
Method in brief: as §2

## CN(CC1CC1)C(=O)c1c(C(F)(F)F)ccc(C(=O)Nc2nnnn2C)c1Cl [Example 1-126]
Avena fatua [1]; 20 g/ha
  Post-emergence action against AVEFA in %: 100%
Avena fatua [1]; 80 g/ha
  Post-emergence action against AVEFA in %: 100%
Viola tricolor [2]; 80 g/ha
  Pre-emergence action against VIOTR: 100%
Viola tricolor [2]; 320 g/ha
  Pre-emergence action against VIOTR: 100%
Stellaria media [3]; 20 g/ha
  Pre-emergence action against STEME: 80%
Stellaria media [3]; 320 g/ha
  Pre-emergence action against STEME: 90%
Matricaria inodora [4]; 20 g/ha
  Pre-emergence action against MATIN: 80%
Matricaria inodora [4]; 80 g/ha
  Pre-emergence action against MATIN: 100%
Matricaria inodora [4]; 320 g/ha
  Pre-emergence action against MATIN: 100%
Matricaria inodora [5]; 5 g/ha
  Post-emergence action against MATIN in %: 80%
Matricaria inodora [5]; 20 g/ha
  Post-emergence action against MATIN in %: 90%
Matricaria inodora [5]; 80 g/ha
  Post-emergence action against MATIN in %: 100%
Lolium rigidum [6]
  Pre-emergence action against LOLRI: 90%
Amaranthus retroflexus [7]; 5 g/ha
  Post-emergence action against AMARE in %: 100%
Amaranthus retroflexus [7]; 20 g/ha
  Post-emergence action against AMARE in %: 100%
Amaranthus retroflexus [7]; 80 g/ha
  Post-emergence action against AMARE in %: 100%
Viola tricolor [8]; 5 g/ha
  Post-emergence action against VIOTR in %: 90%
Viola tricolor [8]; 20 g/ha
  Post-emergence action against VIOTR in %: 100%
Viola tricolor [8]; 80 g/ha
  Post-emergence action against VIOTR in %: 100%
Hordeum murinum [9]; 20 g/ha
  Post-emergence action against HORMU in %: 100%
Hordeum murinum [9]; 80 g/ha
  Post-emergence action against HORMU in %: 100%
Setaria viridis [10]; 5 g/ha
  Post-emergence action against SETVI in %: 100%
Setaria viridis [10]; 20 g/ha
  Post-emergence action against SETVI in %: 100%
Setaria viridis [10]; 80 g/ha
  Post-emergence action against SETVI in %: 100%
Echinochloa crus-galli [11]; 80 g/ha
  Pre-emergence action against ECHCG: 90%
Echinochloa crus-galli [11]; 320 g/ha
  Pre-emergence action against ECHCG: 100%
Abutilon theophrasti [12]; 5 g/ha
  Post-emergence action against ABUTH: 100%
Abutilon theophrasti [12]; 20 g/ha
  Post-emergence action against ABUTH: 100%
Abutilon theophrasti [12]; 80 g/ha
  Post-emergence action against ABUTH: 100%
Alopecurus myosuroides [13]; 80 g/ha
  Pre-emergence action against ALOMY: 80%
Alopecurus myosuroides [13]; 320 g/ha
  Pre-emergence action against ALOMY: 90%
Veronica persica [14]; 20 g/ha
  Post-emergence action against VERPE in %: 80%
Veronica persica [14]; 80 g/ha
  Post-emergence action against VERPE in %: 80%
Alopecurus myosuroides [15]; 5 g/ha
  Post-emergence action against ALOMY: 90%
Alopecurus myosuroides [15]; 20 g/ha
  Post-emergence action against ALOMY: 100%
Alopecurus myosuroides [15]; 80 g/ha
  Post-emergence action against ALOMY: 100%
Pharbitis purpurea [16]; 5 g/ha
  Post-emergence action against PHBPU in %: 90%
Pharbitis purpurea [16]; 20 g/ha
  Post-emergence action against PHBPU in %: 90%
Pharbitis purpurea [16]; 80 g/ha
  Post-emergence action against PHBPU in %: 100%
Stellaria media [17]; 5 g/ha
  Post-emergence action against STEME in %: 100%
Stellaria media [17]; 20 g/ha
  Post-emergence action against STEME in %: 100%
Stellaria media [17]; 80 g/ha
  Post-emergence action against STEME in %: 100%
Polygonum convolvulus
  Post-emergence action against POLCO in %: 80%
Cyperus esculentus [18]
  Post-emergence action against CYPES in %: 80%
Hordeum murinum [19]; 80 g/ha
  Pre-emergence action against HORMU: 80%
Hordeum murinum [19]; 320 g/ha
  Pre-emergence action against HORMU: 100%
Avena fatua [20]; 80 g/ha
  Pre-emergence action against AVEFA: 80%
Avena fatua [20]; 320 g/ha
  Pre-emergence action against AVEFA: 100%
Echinochloa crus-galli [21]; 5 g/ha
  Post-emergence action against ECHCG in %: 80%
Echinochloa crus-galli [21]; 20 g/ha
  Post-emergence action against ECHCG in %: 100%
Echinochloa crus-galli [21]; 80 g/ha
  Post-emergence action against ECHCG in %: 100%
Lolium rigidum [22]
  Post-emergence action against LOLRI in %: 90%
Pharbitis purpurea [23]
  Pre-emergence action against PHBPU: 80%
Abutilon theophrasti [24]; 20 g/ha
  Pre-emergence action against ABUTH: 100%
Abutilon theophrasti [24]; 80 g/ha
  Pre-emergence action against ABUTH: 100%
Abutilon theophrasti [24]; Dosage column 320 g/ha (heading prints 3200 g/ha)
  Pre-emergence action against ABUTH: 100%
Veronica persica [25]
  Pre-emergence action against VERPE: 90%
Cyperus esculentus [26]
  Pre-emergence action against CYPES: 90%
Setaria viridis [27]; 80 g/ha
  Pre-emergence action against SETVI: 90%
Setaria viridis [27]; 320 g/ha
  Pre-emergence action against SETVI: 100%
Amaranthus retroflexus [28]; 20 g/ha
  Pre-emergence action against AMARE: 80%
Amaranthus retroflexus [28]; 80 g/ha
  Pre-emergence action against AMARE: 90%
Amaranthus retroflexus [28]; 320 g/ha
  Pre-emergence action against AMARE: 100%
